The subject of data set [1] is MCF7. Put plainly: NCI in vitro cytotoxicity (SRB, 48 h), Breast panel. Type of data set: cell-based. Conditions: Homo sapiens, MCF7; MCF-7; Table 4; read-out: Comparative efficacy. The procedure: (§1) The imidazothiazole-chalcone hybrids 7a, 7e, 7f, 8f and 19e have been tested against sixty human tumour cell lines derived from nine cancer types (leukemia, non-small cell lung cancer, colon cancer, CNS cancer, melanoma, ovarian cancer, renal cancer, prostate cancer and breast cancer) as per NCI protocol. For each compound, dose response curves for individual cell lines have been measured at a minimum of five concentrations at 10 fold dilutions. A protocol of 48 h continuous drug exposure has been used, and a sulforhodamine B (SRB) protein assay was used to estimate cell viability or growth. The concentration for 50% cell growth inhibition (GI50), total cell growth inhibition (TGI, 0% growth) and 50% cell death (LC50, […]) compared with the control has been calculated (Table-1).

Data set [2] relates to MDA-MB-231/ATCC. Described as above. Type of data set: cell-based. Conditions: Homo sapiens, Table 4, read-out: Comparative efficacy. The procedure:
as §1

For data set [3], the system named is SR. Put plainly: NCI in vitro cytotoxicity (SRB, 48 h), Leukemia panel. Type of data set: cell-based. Conditions: Homo sapiens. The method, then: as §1

Consider nine compounds from patent US8916711B2, “Imidazothiazole-chalcone derivatives as potential anticancer agents and process for the preparation thereof” (Council of Scientific and Industrial Research, priority 2009, dated 2014).

Usually melting point stands for the temperature, or range, at which the solid turns liquid. A word on the GI50: it is the concentration giving 50% growth inhibition.

As for `C1=Nc2c3c(ccc2=N1)=NCS3` [C, imidazobenzothiazole, reference compound], the IC50 in data set [1] was 32.5 µM; in data set [2], 43.2 µM.

For the compound `COc1ccc(C(=O)/C=C/c2c(-c3ccc(F)cc3)nc3sccn23)cc1OC` [Compound 8e, (E)-1-(3,4-dimethoxyphenyl)-3-(6-(4-fluorophenyl)imidazo[2,1-b]thiazol-5-yl)prop-2-en-1-one], the melting point was in the range of 221 to 223 °C.

For the compound `Cc1ccc(C(=O)/C=C/c2c(-c3ccc(F)cc3)nc3sccn23)cc1C` [Compound 9e, (E)-1-(3,4-dimethylphenyl)-3-(6-(4-fluorophenyl)imidazo[2,1-b]thiazol-5-yl)prop-2-en-1-one], the melting point was in the range of 210 to 213 °C.

For `COc1ccc(-c2nc3sccn3c2/C=C/C(=O)c2ccc3c(c2)OCO3)cc1` [Compound 11a, (E)-1-(benzo[d][1,3]dioxol-5-yl)-3-(6-(4-methoxyphenyl)imidazo[2,1-b]thiazol-5-yl)prop-2-en-1-one], the melting point fell in the range of 189 to 191 °C.

Take `O=C(/C=C/c1c(-c2ccc(F)cc2)nc2sccn12)c1ccc2ccccc2c1` [Compound 12e, (E)-3-(6-(4-fluorophenyl)imidazo[2,1-b]thiazol-5-yl)-1-(naphthalen-2-yl)prop-2-en-1-one]: the melting point lay in the range of 216 to 218 °C.

Consider `O=C(/C=C/c1c(-c2ccc(F)cc2)nc2sccn12)c1ccc(-c2ccccc2)cc1` [Compound 13e, (E)-1-(biphenyl-4-yl)-3-(6-(4-fluorophenyl)imidazo[2,1-b]thiazol-5-yl)prop-2-en-1-one], for which the melting point lay in the range of 194 to 196 °C.

As for `COc1ccc(-c2nc3sccn3c2/C=C/C(=O)c2cccs2)cc1` [Compound 16a, (E)-3-(6-(4-methoxyphenyl)imidazo[2,1-b]thiazol-5-yl)-1-(thiophen-2-yl)prop-2-en-1-one], the melting point was in the range of 169 to 172 °C.

`COc1ccc(-c2nc3sccn3c2/C=C/C(=O)c2ccc[nH]2)cc1` [Compound 17a, (E)-3-(6-(4-methoxyphenyl)imidazo[2,1-b]thiazol-5-yl)-1-(1H-pyrrol-2-yl)prop-2-en-1-one] came in with a melting point of 177 to 179 °C.

Turning to `COc1cc(C(=O)/C=C/c2c(C(F)(F)F)nc3sc(C)cn23)cc(OC)c1OC` [Compound 19f, (E)-3-(2-methyl-6-(trifluoromethyl)imidazo[2,1-b]thiazol-5-yl)-1-(3,4,5-trimethoxyphenyl)prop-2-en-1-one], in data set [3], it took 0.8 µM to inhibit growth by half (GI50). That is a sub-micromolar value.
